Assays:
CaCo2 transport assay = format: in vitro ADME; details: human, Caco-2; 50 μM in donor compartment; read-out: Papp [cm/sec ± rel. SD]
Method: (§1) Performance of selected compounds in a CaCo2 assay: Caco-2 cell culture and transport experiments were performed according to Yee (Yee, S., Pharm. Res., 14(6): 763-766 (1997)), but slight modifications were introduced. The cultivation times were reduced from 21 to 10 days by increasing the sowing density from 6.3·10^4 to 1.65·10^5 cells per well. […] The initial concentration of the compounds in the donor compartment was 50 μM (in buffer with 1% ethanol or DMSO). Samples were taken from the acceptor side after 60, 120 and 180 min and from the donor side after 0 and 180 min. For glycoprotein P (P-gp) studies, bidirectional experiments were performed. The absorptive and secretory permeabilities (Papp (a-b) and Papp (b-a)) were determined. Thus, erythromycin was used as a substrate, and verapamil was used as an inhibitor of P-gp. Each experiment was performed in triplicate. The integrity of the monolayer was determined by means of TEER (transepithelial electric resistance) and the permeability for each assay was determined using Lucifer Yellow. All samples of the CaCo-2 transport experiments were analyzed by means of LC/MS/MS after dilution with buffer (1:1 with 2% acetic acid). The apparent permeability coefficient (Papp) was calculated by means of the formula given below, where dQ/dt represents the recovery rate of the mass in the acceptor compartment, A represents the surface area of the transwell membrane, and c0 represents the initial concentration in the donor compartment.

CaCo-2 cells = experiment: CaCo2 transport assay; format: in vitro ADME; details: 50 μM in donor compartment
Method: as §1

17β-HSD1 = target: T1, 17β-HSD1 (Homo sapiens, UniProt P14061); experiment: Inhibition of 17β-HSD1 (estrone to estradiol, radio-HPLC); format: biochemical; details: for IC50: human placenta enzyme, 500 nM estrone, NADH 500 μM; for Selectivity IC50 (17β-HSD2)/IC50 (17β-HSD1): ratio of IC50 values
T1 construct: In both cases, human placenta served as the enzyme source; from tissue; host or cells: human placenta
T1 sequence (P14061 1-328): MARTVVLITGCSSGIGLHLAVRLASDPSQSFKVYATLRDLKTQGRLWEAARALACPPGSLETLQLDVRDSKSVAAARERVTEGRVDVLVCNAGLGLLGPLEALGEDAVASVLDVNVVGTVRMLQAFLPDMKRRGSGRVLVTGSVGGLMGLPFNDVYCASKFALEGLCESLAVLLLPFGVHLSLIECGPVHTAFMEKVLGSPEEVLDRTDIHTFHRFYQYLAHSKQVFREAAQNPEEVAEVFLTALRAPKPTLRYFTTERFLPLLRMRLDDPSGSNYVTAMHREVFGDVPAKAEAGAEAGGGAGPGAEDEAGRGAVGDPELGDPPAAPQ
Method: In the 17β-HSD1 test, NADH is employed as a cosubstrate at a final concentration of 500 μM in order to avoid the product inhibition occurring with NADPH. The enzyme preparation is diluted with test buffer to such an extent that the control conversion is 10 to maximally 20% (about 1:650). As the substrate, estrone in a final concentration of 500 nM is used, of which 3 nM is tritiated. 2,4,6,7-[^3H]estrone is purchased from Perkin-Elmer, Boston. The inhibitor is added as a solution in DMSO (control: pure DMSO without inhibitor; the final concentration of DMSO in the assay is 1% in all cases).
(§2) After the reaction, the substrate and product are extracted by partitioning with ether, separated by chromatography (HPLC) and quantified by means of radiodetection.

17β-HSD2 = target: T2, 17β-HSD2 (Homo sapiens, UniProt P37059); experiment: Inhibition of 17β-HSD2 (estradiol to estrone, radio-HPLC); format: biochemical; details: human placenta microsome fraction, 500 nM estradiol, NAD+ 1500 μM
T2 construct: from tissue; host or cells: human placenta, microsome fraction
T2 sequence (P37059 1-387): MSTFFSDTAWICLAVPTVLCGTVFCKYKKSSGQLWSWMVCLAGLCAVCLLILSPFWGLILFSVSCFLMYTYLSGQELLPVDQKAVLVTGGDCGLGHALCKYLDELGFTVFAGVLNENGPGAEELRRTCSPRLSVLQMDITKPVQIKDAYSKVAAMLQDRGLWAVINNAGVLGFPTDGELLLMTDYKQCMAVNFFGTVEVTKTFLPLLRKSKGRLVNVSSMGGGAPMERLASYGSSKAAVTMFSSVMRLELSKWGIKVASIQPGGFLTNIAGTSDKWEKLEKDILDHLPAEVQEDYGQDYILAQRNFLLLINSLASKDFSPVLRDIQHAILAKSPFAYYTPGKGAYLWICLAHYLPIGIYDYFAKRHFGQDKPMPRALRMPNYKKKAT
Method: Determination of the inhibitory activity of the potential inhibitors: Inhibition of 17β-HSD1 and 17β-HSD2: In both cases, human placenta served as the enzyme source (Lin, S.-X. et al., J. Biol. Chem., 267: 16182-16187 (1992)).
In the 17β-HSD2 test, the natural cosubstrate NAD^+ is employed at a final concentration of 1500 μM. The microsome fraction is diluted in test buffer, so that a control conversion of 20 to 30% results (about 1:350). As the substrate, estradiol in a final concentration of 500 nM is used, of which 3 nM is tritiated. 2,4,6,7-[^3H]estradiol is also purchased from Perkin-Elmer, Boston. The inhibitor is added as a solution in DMSO (control: pure DMSO without inhibitor; the final concentration of DMSO in the assay is […]). After the addition of the substrate, incubation is performed at 37° C. for 20 minutes. The reaction is quenched by the addition of HgCl2 (final concentration of HgCl2: 0.166 mM).
as §2

CYP2C19 = target: T3, CYP2C19 (Homo sapiens, UniProt P33261); experiment: Inhibition of hepatic CYP enzymes: CYP2C19; format: biochemical
T3 construct: purchased Becton Dickinson GmbH (Heidelberg)
Source text: (§3) Drug interactions (inhibition of hepatic CYP enzymes): The inhibition of six human hepatic cytochrome P450 enzymes by selected compounds was examined by means of the kit supplied by Becton Dickinson GmbH (Heidelberg).

CYP1A2 = target: T4, CYP1A2 (Homo sapiens, UniProt P05177); experiment: Inhibition of hepatic CYP enzymes: CYP1A2; format: biochemical; details: read-out: CYP1A2 IC50 (mean ± SD)
T4 construct: purchased Becton Dickinson GmbH (Heidelberg)
T4 sequence (P05177 1-516): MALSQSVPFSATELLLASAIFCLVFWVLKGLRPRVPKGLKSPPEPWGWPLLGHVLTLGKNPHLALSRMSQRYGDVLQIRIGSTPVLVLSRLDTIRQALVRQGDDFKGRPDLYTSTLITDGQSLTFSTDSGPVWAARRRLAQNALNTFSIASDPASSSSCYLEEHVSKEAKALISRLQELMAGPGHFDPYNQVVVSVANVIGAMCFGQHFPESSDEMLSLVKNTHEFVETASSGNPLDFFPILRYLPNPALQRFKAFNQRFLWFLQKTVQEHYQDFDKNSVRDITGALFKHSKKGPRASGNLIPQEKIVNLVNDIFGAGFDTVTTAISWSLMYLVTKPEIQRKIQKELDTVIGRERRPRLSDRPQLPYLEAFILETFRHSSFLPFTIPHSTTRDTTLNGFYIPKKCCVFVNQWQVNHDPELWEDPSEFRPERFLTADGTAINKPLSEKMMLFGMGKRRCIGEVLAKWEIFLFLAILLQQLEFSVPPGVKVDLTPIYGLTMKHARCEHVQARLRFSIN
Source text: as §3

[1] = In vivo pharmacokinetics (rat), peroral cassette dosing; design: species or system Wistar rats; details: 10 mg/kg; for AUC(0-inf): extrapolated to ∞
Method: In vivo pharmacokinetics (rat): The compounds 29, 45, 47 and 59 and a reference compound were administered to adult male Wistar rats (n=4) perorally in a cassette dosing method (vehicle: Labrasol/water 1/1). The plasma profiles were established by means of LC-MS/MS.
• Cmax obs highest measured concentration • Cz last analytically quantifiable concentration • tmax obs time to reach the highest measured concentration • tz time to withdrawal of the last sample with analytically quantifiable concentration • t1/2z half life (determined from the slope of the declining portion of the concentration vs. time curve • AUC0-tz area below the concentration vs. time curve up to time tZ • AUC0-∞ area below the concentration vs. time curve, extrapolated to ∞

T3 sequence (P33261 whole entry): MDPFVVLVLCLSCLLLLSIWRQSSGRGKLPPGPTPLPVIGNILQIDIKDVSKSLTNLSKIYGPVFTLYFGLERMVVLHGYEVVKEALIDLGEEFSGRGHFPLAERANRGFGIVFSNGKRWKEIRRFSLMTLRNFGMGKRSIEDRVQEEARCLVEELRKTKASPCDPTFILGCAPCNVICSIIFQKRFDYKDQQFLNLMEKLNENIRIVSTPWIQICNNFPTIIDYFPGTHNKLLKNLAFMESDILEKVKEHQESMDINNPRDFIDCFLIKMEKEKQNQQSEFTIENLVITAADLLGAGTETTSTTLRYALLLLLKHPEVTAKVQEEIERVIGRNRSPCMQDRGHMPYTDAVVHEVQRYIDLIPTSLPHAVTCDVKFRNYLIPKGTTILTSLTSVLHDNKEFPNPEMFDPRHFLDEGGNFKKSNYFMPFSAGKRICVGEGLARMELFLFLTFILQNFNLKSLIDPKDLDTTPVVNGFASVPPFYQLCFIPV

Compound	Papp at 180 min, 50 μM (CaCo2 transport assay) [×10⁻⁶ cm/s]	Permeability (class in words) (CaCo-2 cells)	IC50 (17β-HSD1) [nM]	IC50 (17β-HSD2) [nM]	Selectivity IC50 (17β-HSD2)/IC50 (17β-HSD1) (17β-HSD1)	IC50 (CYP2C19) [nM]	IC50 (CYP1A2) [nM]	tz (time of last sample with quantifiable concentration) [1] [h]	Cz (last analytically quantifiable concentration) ([1]; plasma) [ng/mL]	AUC(0-t) ([1]; male, Wistar, plasma, po) [ng·h/mL]	AUC(0-inf) ([1]; male, Wistar, plasma, po) [ng·h/mL]	half-life ([1]; male, Wistar, plasma, po, read-out: t1/2z (half life) (converted)) [h]	Tmax ([1]; male, Wistar, plasma, po, read-out: tmax obs (time to reach the highest measured concentration)) [h]	Cmax ([1]; male, Wistar, po, plasma, read-out: Cmax obs (highest measured concentration)) [ng/mL]	t1/2z (half life) [1] [h]	tmax obs (time to reach the highest measured concentration) [1] [h]
Cc1cc(O)cc(-c2ccc(-c3ccc(O)cc3)s2)c1 [Compound 53, 3-[5-(4-Hydroxyphenyl)-2-thienyl]-5-methylphenol]	24.2	high	450													
Oc1ccc(-c2cnc(-c3cccc(O)c3)o2)cc1 [Compound 8, 3-[5-(4-Hydroxyphenyl)-1,3-oxazole-2-yl]phenol]	7.9	medium-high	570	1020	1.8											
Oc1ccc(-c2cc(-c3cccc(O)c3)cs2)cc1 [Compound 32, 3-[5-(4-Hydroxyphenyl)-3-thienyl]phenol]		high	130	1700		4430 ± 170	8680 ± 290									
Oc1cccc(-c2nsc(-c3cccc(O)c3)n2)c1 [Compound 37]	3.6	medium	180	600	3.3											
Oc1ccc(-c2cc(-c3cccc(O)c3)on2)cc1 [Compound 18, 3-[3-(4-Hydroxyphenyl)isoxazole-5-yl]phenol]	7.3	medium-high	560	800	1.4											
Oc1ccc(-c2ncc(-c3cccc(O)c3)s2)cc1 [Compound 20, 3-[2-(4-Hydroxyphenyl)-1,3-thiazole-5-yl]phenol]	11.7	high	180	3100	17											
Oc1ccc(-c2cccc(-c3ccc(O)cc3)c2)cc1 [Compound 41, [1,1′;3′,1″]Terphenyl-4,4″-diol]	12.6	high	1600	2200	1.4											

Compounds with a lower IC50 (17β-HSD1), results first:

Papp at 180 min, 50 μM (CaCo2 transport assay) [×10⁻⁶ cm/s]	Permeability (class in words) (CaCo-2 cells)	IC50 (17β-HSD1) [nM]	IC50 (17β-HSD2) [nM]	Selectivity IC50 (17β-HSD2)/IC50 (17β-HSD1) (17β-HSD1)	IC50 (CYP2C19) [nM]	IC50 (CYP1A2) [nM]	tz (time of last sample with quantifiable concentration) [1] [h]	Cz (last analytically quantifiable concentration) ([1]; plasma) [ng/mL]	AUC(0-t) ([1]; male, Wistar, plasma, po) [ng·h/mL]	AUC(0-inf) ([1]; male, Wistar, plasma, po) [ng·h/mL]	half-life ([1]; male, Wistar, plasma, po, read-out: t1/2z (half life) (converted)) [h]	Tmax ([1]; male, Wistar, plasma, po, read-out: tmax obs (time to reach the highest measured concentration)) [h]	Cmax ([1]; male, Wistar, po, plasma, read-out: Cmax obs (highest measured concentration)) [ng/mL]	t1/2z (half life) [1] [h]	tmax obs (time to reach the highest measured concentration) [1] [h]	Compound
22	high	60	1950	33			10.0	6.56	99.2	99.2	1.5	8	7.8			Oc1ccc(-c2ccc(-c3cccc(O)c3)s2)cc1 [Compound 29, 3-[5-(4-Hydroxyphenyl)-2-thienyl]phenol]
7.8	medium-high	50	4000	80												Oc1ccc(-c2cnc(-c3cccc(O)c3)s2)cc1 [Compound 19, 3-[5-(4-Hydroxyphenyl)-1,3-thiazole-2-yl]phenol]
		10	940	94			24.0	25	19300	19400				2.7	8.0	Oc1cccc(-c2ccc(-c3ccc(O)c(F)c3)s2)c1 [Compound 47, 2-Fluoro-4-[5-(3-hydroxyphenyl)-2-thienyl]phenol]
